Our source for the Stabilty, Activity and IC50 values is ChEMBL document CHEMBL4842347, “Structure-activity relationship and biochemical evaluation of novel fibroblast activation protein and prolyl endopeptidase inhibitors with α-ketoamide warheads” (Eur J Med Chem, 2021).

Data set [1] in a line: Metabolic stability in human plasma incubated for 2 hrs by LC/MS-MS analysis. The format is ADME, cell-free.
Data set [2] is described as follows: Drug degradation in human plasma measured up to 1 min incubated for 2 hrs by LC/MS-MS analysis. The data set is classed as ADME, cell-free.
Data set [3] is described as follows: Drug degradation in mouse liver microsomes measured up to 1 min incubated for 2 hrs by LC/MS-MS analysis. The format is ADME, Microsome. For orientation: Liver microsomes are a subcellular fraction often used to study metabolism.
Data set [4] relates to CCRF-CEM. The experiment in a line: Cytotoxicity against human CCRF-CEM cells assessed as reduction in cell viability incubated for 72 hrs measured by […]-based colorimetric assay. The format is functional.
The test system of data set [5] is HepG2. As to the kind of experiment: Cytotoxicity against human HepG2 cells assessed as reduction in cell viability incubated for 72 hrs measured by […]-based colorimetric assay. The format is functional.
The test system of data set [6] is HeLa. As to the kind of experiment: Cytotoxicity against human HeLa cells assessed as reduction in cell viability incubated for 72 hrs measured by […]-based colorimetric assay. The data set is classed as functional.
The test system of data set [7] is HL-60. As to the kind of experiment: Cytotoxicity against human HL-60 cells assessed as reduction in cell viability incubated for 72 hrs measured by […]-based colorimetric assay. The format is functional.
For data set [8], the target named is Dipeptidyl peptidase 4 (Homo sapiens, UniProt P27487). As to the kind of experiment: Inhibition of SF-tagged DPP4 (unknown origin) expressed in Drosophila S2 cells using fluorogenic substrate by spectrometric analysis. The format is cell-based.
Chain of Dipeptidyl peptidase 4 (P27487 whole entry): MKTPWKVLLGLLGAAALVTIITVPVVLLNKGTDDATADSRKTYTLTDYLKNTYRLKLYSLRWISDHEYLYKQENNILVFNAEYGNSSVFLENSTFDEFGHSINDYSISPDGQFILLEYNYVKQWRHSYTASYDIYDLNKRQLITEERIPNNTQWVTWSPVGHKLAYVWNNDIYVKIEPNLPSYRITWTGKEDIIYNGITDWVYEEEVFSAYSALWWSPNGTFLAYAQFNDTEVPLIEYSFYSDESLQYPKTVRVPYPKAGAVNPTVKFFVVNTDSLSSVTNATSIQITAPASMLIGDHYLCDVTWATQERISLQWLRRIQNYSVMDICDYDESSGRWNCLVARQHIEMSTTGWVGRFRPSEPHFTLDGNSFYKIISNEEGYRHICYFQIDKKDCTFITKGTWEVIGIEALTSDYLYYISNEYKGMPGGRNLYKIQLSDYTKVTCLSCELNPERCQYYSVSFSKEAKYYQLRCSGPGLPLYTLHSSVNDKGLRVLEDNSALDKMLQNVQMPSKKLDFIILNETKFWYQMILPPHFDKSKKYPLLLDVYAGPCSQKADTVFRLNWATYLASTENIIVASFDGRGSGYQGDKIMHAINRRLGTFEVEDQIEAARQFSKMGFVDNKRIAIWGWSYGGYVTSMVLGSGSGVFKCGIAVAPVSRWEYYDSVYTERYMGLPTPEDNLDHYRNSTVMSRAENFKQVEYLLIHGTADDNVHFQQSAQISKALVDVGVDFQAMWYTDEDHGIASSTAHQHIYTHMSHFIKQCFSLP
Data set [9] is described as follows: Inhibition of PREP (unknown origin) using fluorogenic substrate by spectrometric assay. Set-up: species or system Homo sapiens.

Active and inactive are the calls of the source. The calls are words filed in the database; no cut-off is given here.

For `COC(=O)[C@H](CCC(=O)OCc1ccccc1)NC(=O)CNC(=O)C(=O)[C@@H]1CCCN1C(=O)CNC(=O)c1ccnc2ccccc12`, the Stabilty result in [1] is listed as “Stable”; in data set [2], “Unstable”; in data set [3] it was “Unstable”. Also, the outcome in [4], in [5], in [6] and in data set [7] was inactive.

As to `O=C(NCc1ccccc1)C(=O)[C@@H]1CCCN1C(=O)CNC(=O)c1ccnc2ccccc12`, the Stabilty entry in data set [1] is recorded as “Stable”; in data set [3], “Unstable”. Also, the outcome in [4], in data set [5], in [6] and in data set [7] was inactive.

Regarding `O=C(NCC(=O)N1CCOCC1)C(=O)[C@@H]1CCCN1C(=O)CNC(=O)c1ccnc2ccccc12`, the IC50 in [8] was more than 4 µM; in data set [9] it was 0.49 nM. For the same compound, the result in data set [4], in [5], in data set [6] and in data set [7] was inactive.

As for `O=C(NCc1ccc(F)cc1)C(=O)[C@@H]1CCCN1C(=O)CNC(=O)c1ccnc2ccccc12`, the figures for the half-inhibitory concentration (IC50) in data set [8] and in [9] were more than 3 µM and 0.26 nM, respectively. The result in [4], in data set [5], in [6] and in [7] was inactive.

With `COc1ccc(NC(=O)C(=O)[C@@H]2CCCN2C(=O)CNC(=O)c2ccnc3ccccc23)cc1`, the result in [4], in data set [5], in data set [6] and in data set [7] was inactive.

`COc1ccc(CCNC(=O)C(=O)[C@@H]2CCCN2C(=O)CNC(=O)c2ccnc3ccccc23)cc1OC` registered an IC50 in data set [9] of 0.43 nM. Moreover, the figures for the Stabilty result in [1] and in data set [3] were “Stable” and “Unstable”, respectively. Besides, the result in data set [4], in data set [5], in data set [6] and in [7] was inactive.

Turning to `O=C(NC12CC3CC(CC(C3)C1)C2)C(=O)[C@@H]1CCCN1C(=O)CNC(=O)c1ccnc2ccccc12`, the outcome in data set [4], in data set [5], in data set [6] and in data set [7] was inactive.

As for `COC(=O)CNC(=O)CNC(=O)C(=O)[C@@H]1CCCN1C(=O)CNC(=O)c1ccnc2ccccc12`, the result in data set [4], in [5], in data set [6] and in [7] was inactive.

`COc1ccc(CNC(=O)C(=O)[C@@H]2CCCN2C(=O)CNC(=O)c2ccnc3ccccc23)cc1`: the outcome in data set [4], in data set [5], in [6] and in [7] was inactive.

For the compound `COC(=O)c1ccc(NC(=O)C(=O)[C@@H]2CCCN2C(=O)CNC(=O)c2ccnc3ccccc23)cc1`, the result in data set [4], in data set [5], in data set [6] and in data set [7] was inactive.

With `O=C(NCCc1ccccc1)C(=O)[C@@H]1CCCN1C(=O)CNC(=O)c1ccnc2ccccc12`, the outcome in data set [4], in data set [5], in [6] and in [7] was inactive.

Regarding `CC(C)(C)CNC(=O)C(=O)[C@@H]1CCCN1C(=O)CNC(=O)c1ccnc2ccccc12`, the result in data set [4], in [5], in [6] and in [7] was inactive.

As to `CNC(=O)CNC(=O)C(=O)[C@@H]1CCCN1C(=O)CNC(=O)c1ccnc2ccccc12`, the result in data set [4], in data set [5], in data set [6] and in data set [7] was inactive.

Consider `COC(=O)C(NC(=O)C(=O)[C@@H]1CCCN1C(=O)CNC(=O)c1ccnc2ccccc12)C(C)C` (some centres undefined), for which the outcome in data set [4], in data set [5], in [6] and in data set [7] was inactive.

In [9], `COc1ccc(CNC(=O)C(=O)[C@@H]2CCCN2C(=O)CNC(=O)c2ccnc3ccccc23)cc1OC` displayed an IC50 of 0.24 nM. Further, the Stabilty result in [1] was “Stable”. The outcome in [4], in data set [5], in [6] and in data set [7] was inactive.

Regarding `CC(C)NC(=O)CNC(=O)C(=O)[C@@H]1CCCN1C(=O)CNC(=O)c1ccnc2ccccc12`, the result in [4], in data set [5], in [6] and in data set [7] was inactive.

As to `CCOC(=O)CNC(=O)C(=O)[C@@H]1CCCN1C(=O)CNC(=O)c1ccnc2ccccc12`, the result in [4], in [5], in [6] and in [7] was inactive.

As for `O=CCNC(=O)CNC(=O)C(=O)[C@@H]1CCCN1C(=O)CNC(=O)c1ccnc2ccccc12`, the outcome in data set [4], in data set [5], in [6] and in data set [7] was inactive.

Turning to `CC(C)(C)NC(=O)CNC(=O)C(=O)[C@@H]1CCCN1C(=O)CNC(=O)c1ccnc2ccccc12`, the IC50 was more than 4 µM in [8] and 0.73 nM in data set [9]. The result in [4], in data set [5], in data set [6] and in data set [7] was inactive.

In the case of `COC(=O)[C@H](CCC(=O)O)NC(=O)CNC(=O)C(=O)[C@@H]1CCCN1C(=O)CNC(=O)c1ccnc2ccccc12`, the IC50 is more than 4 µM in [8] and 1.3 nM in [9]. Further, the result in data set [4], in data set [5], in [6] and in data set [7] was inactive.

As to `N#C[C@@H]1CC(F)(F)CN1C(=O)CNC(=O)c1ccnc2ccccc12`, 310 nM corresponded to half-maximal inhibition in data set [9] (IC50).

Turning to `COC(=O)C(C)NC(=O)C(=O)[C@@H]1CCCN1C(=O)CNC(=O)c1ccnc2ccccc12` (mixture of isomers), the result in data set [4], in data set [5], in data set [6] and in data set [7] was inactive.

Regarding `CC(C)(C)OC(=O)CNC(=O)C(=O)[C@@H]1CCCN1C(=O)CNC(=O)c1ccnc2ccccc12`, the IC50 in data set [8] is more than 3 µM; in data set [9], 0.53 nM. The result in [4], in data set [5], in data set [6] and in [7] was inactive.

On to `O=C(NC1CC1)C(=O)[C@@H]1CCCN1C(=O)CNC(=O)c1ccnc2ccccc12`, for which the result in data set [4], in data set [5], in data set [6] and in data set [7] was inactive.

As for `N#C[C@@H]1CCCN1C(=O)CNC(=O)c1ccnc2ccccc12`, the IC50 in data set [8] was more than 4 µM; in [9], 320 nM.

On to `O=C(NCC(=O)N1CCCC1)C(=O)[C@@H]1CCCN1C(=O)CNC(=O)c1ccnc2ccccc12`, for which the outcome in [4], in [5], in [6] and in data set [7] was inactive.

`CCCCCNC(=O)C(=O)[C@@H]1CCCN1C(=O)CNC(=O)c1ccnc2ccccc12` yielded an IC50 in data set [9] of 0.4 nM. Also, the result in data set [4], in [5], in data set [6] and in data set [7] was inactive.

Regarding `COC(=O)[C@H](CCCCNC(=O)OCc1ccccc1)NC(=O)CNC(=O)C(=O)[C@@H]1CCCN1C(=O)CNC(=O)c1ccnc2ccccc12`, the values for the IC50 in [8] and in data set [9] were more than 4 µM and 0.29 nM, respectively. Besides, the result in [4], in [5], in [6] and in data set [7] was inactive.

With `CCCCCCNC(=O)CNC(=O)C(=O)[C@@H]1CCCN1C(=O)CNC(=O)c1ccnc2ccccc12`, the result in [4], in data set [5], in data set [6] and in data set [7] was inactive.

As for `O=C(CNC(=O)C(=O)[C@@H]1CCCN1C(=O)CNC(=O)c1ccnc2ccccc12)NC1CC1`, the result in data set [4], in data set [5], in data set [6] and in data set [7] was inactive.

Take `Cc1ccc(CNC(=O)C(=O)[C@@H]2CCCN2C(=O)CNC(=O)c2ccnc3ccccc23)c(C)c1`: the IC50 in data set [8] is more than 4 µM; in data set [9] it was 0.66 nM. Also, the result in [4], in [5], in data set [6] and in data set [7] was inactive.

By IC50 is commonly meant the concentration that inhibits the measured activity by half.
